Assay results taken from the NIST ThermoML archive (doi:10.1016/j.jct.2015.07.006).
Where “and” joins values, the source holds several entries; their conditions need not be identical. Equal entries are not always repeated.

Assay: mn = molality of the nth substance listed, in mol/kg
Settings: 298.15 K, 100 kPa, Liquid, Vibrating tube method

[O]=[Tc](=[O])(=[O])[OH] [pertechnetic acid] + O
Settings	mass density
m1 = 0.000983	996.83 kg/m3
m1 = 0.00102	996.91 kg/m3
m1 = 0.00113	996.91 kg/m3 and 996.92 kg/m3
m1 = 0.00124	996.91 kg/m3
m1 = 0.00159	996.95 kg/m3
m1 = 0.1	1008.7 kg/m3
m1 = 0.103	1008.77 kg/m3
m1 = 0.114	1009.95 kg/m3
m1 = 0.115	1010.3 kg/m3
m1 = 0.127	1011.76 kg/m3
m1 = 0.163	1016.23 kg/m3
m1 = 0.888	1097.53 kg/m3
m1 = 0.98	1107.47 kg/m3
m1 = 1.007	1117.47 kg/m3
m1 = 1.096	1127.7 kg/m3
m1 = 1.182	1137.34 kg/m3
m1 = 1.265	1146.5 kg/m3
m1 = 1.347	1155.88 kg/m3
m1 = 1.398	1164.11 kg/m3
m1 = 1.535	1178.55 kg/m3
m1 = 1.696	1195.28 kg/m3
m1 = 2.034	1225.06 kg/m3
m1 = 2.106	1235.3 kg/m3
m1 = 2.211	1243.09 kg/m3
m1 = 2.45	1263.95 kg/m3
m1 = 2.555	1272.74 kg/m3
m1 = 2.667	1283.23 kg/m3
m1 = 2.783	1293.03 kg/m3
m1 = 2.908	1303.34 kg/m3
m1 = 3.042	1314.68 kg/m3
m1 = 3.33	1335.81 kg/m3
m1 = 3.49	1348.06 kg/m3
m1 = 3.693	1374.94 kg/m3
m1 = 3.884	1389.83 kg/m3
m1 = 4.038	1399.11 kg/m3
m1 = 4.46	1434.87 kg/m3
m1 = 4.661	1446.75 kg/m3
m1 = 4.851	1460.83 kg/m3
m1 = 5.049	1475.34 kg/m3
m1 = 5.257	1490.81 kg/m3
m1 = 5.485	1507.23 kg/m3
m1 = 5.722	1523.34 kg/m3
m1 = 6.254	1556.61 kg/m3
m1 = 6.537	1574.08 kg/m3
m1 = 6.849	1593.38 kg/m3
m1 = 7.187	1612.75 kg/m3
m1 = 7.54	1634.13 kg/m3
m1 = 7.918	1657.06 kg/m3
m1 = 8.323	1679.31 kg/m3
